Data taken from US4329347A, “Cardiotonic and antithrombotic sulfur-containing derivatives of carbostyril” (Boehringer Ingelheim GmbH, priority 1978, dated 1982).
Where two headings read alike, the source gives them in different places.

Assays:
[1] = Acute toxicity, oral; assay type: in vivo; conditions: mouse, in vivo; mice, single oral dose, 14 days observation; read-out: Acute Toxicity per os
Protocol: (§1) The acute toxicity of the test compounds was determined on groups of 10 mice each after oral administration of a single dose of 1,000 mg/kg (observation time: 14 days).

[2] = system: mice; experiment: Acute toxicity, oral; assay type: in vivo; conditions: single oral dose of 1,000 mg/kg, 14 days observation
Protocol: as §1

[3] = system: Walker-256 carcinosarcoma cells; experiment: Effect on tumor cell embolism: mortality after injection of Walker-256 carcinosarcoma cells in mice; assay type: in vivo
Protocol: (a) Mice having a body weight of about 25 grams received an injection in the jugular vein of a million Walker-256 carcinosarcoma cells. These tumor cells lead to a formation of thrombocyte clumps, which causes a fatal tumor cell embolism in a portion of the animals. Under the influence of the test compounds, the number of deceased animals can be reduced. Normally, about 65% of the control animals died within 10 minutes as a result of pulmonary embolism.

[4] = system: thrombocytes (number in the blood after tumor cell injection); experiment: Effect on tumor cell embolism: thrombocyte decrease after intravenous tumor cell injection in rats; assay type: in vivo; conditions: control 70
Text: (b) By virtue of the injection of tumor cells, a strong decrease in the number of thrombocytes in the blood was produced in the test animals (rats) as a consequence of thrombocyte and tumor cell thrombocyte aggregation. […] By administration of suitable substances, the extent of the thrombocyte decrease can be reduced as compared to that of the untreated control animals.

[5] = system: thrombocyte aggregation in platelet-rich plasma of healthy human donors; experiment: Thrombocyte aggregation inhibiting activity by the method of Born and Cross (platelet-rich plasma); assay type: cell-based; conditions: optical density
Protocol: 1. Determination of the thrombocyte aggregation inhibiting activity by the method of Born and Cross [J. Physiol. 170, 397 (1964)]:
The thrombocyte aggregation was measured in the platelet-rich plasma of healthy human donors. The decrease in optical density was measured and recorded photometrically after the addition of adenosine diphosphate or collagen. From the angle of inclination of the density curve, the rate of aggregation was estimated (Vmax). The optical density was taken as the point on the curve where the most light was transmitted (O.D.).
The EC50 values in the tables indicate the optical density.
Small doses of collagen were chosen, but sufficient to give irreversible aggregation. To provoke maximum aggregation, about 0.01 ml of the collagen solution was added to 1 ml of platelet-rich plasma. (Commercial collagen of Hormonchemie, Munich). The adenosine diphosphate (ADP) doses were chosen to give only the first phase of the BORN curve. The necessary amount of ADP was about 1×10^-6 mol/l. Commercial ADP of Boehringer Mannheim was used.
The substance dose which produced a 50% inhibition of the thrombozytes aggregation (EC50) was determined graphically.

[6] = system: Platelet Thromboses in the Rat; experiment: Influence on platelet thromboses in the rat (electrical irritation of a vein); assay type: in vivo; conditions: male rats, five animals per dose, 20 minutes observation, vs. untreated group; dose not given
Protocol: Literature: H. Poliwoda, J. Lilli, G. Hagemann, D. Schyma: Z. ges. exp. Med., 145, 252 (1968)
Male rats (body weight between 70 and 90 grams) received an intraperitoneal Nembutal anesthesia (dose: 50 to 60 mg/kg). To avoid hypothermia, they were positioned on a heated test table (about 37° C.). The respiratory passage was held free by insertion of a tracheal cannula.
After a transverse abdominal incision was made, an intestinal loop was exposed and fixed, and a vein, with a diameter of about 300 μ was prepared. A monopolar platinum electrode embedded in glass and having a tip diameter of about 100μ was applied to the vein as an irritating cathode. The indifferent electrode was applied to the same vessel opposite the cathode. The irritation was provoked by 150 volts of direct current for a period of 100 milliseconds. After the irritation, the area of observation was continuously rinsed with warm (37° C.) physiological salt solution.
The formation and growth of the thrombosis was followed under a binocular microscope over a time period of 20 minutes. During the entire period of observation, the percentage of the vessel volume closed by the thrombosis was estimated at different time intervals.
Five animals per dose were used, and the results were averaged.
In the test compound experiments, the average size of the thrombosis in the treated animal group was compared with that of an untreated animal group. The result was given as "percentage reduction of the average thrombosis size." The following table contains the values obtained.

[7] = system: conscious mice; experiment: Prolongation of the bleeding time (mouse tail); assay type: in vivo; conditions: po, 10 mg/kg orally, after 1 hour, compared to control group, read-out: Prolongation of the bleeding time in % after one hour
Protocol: The function of the thrombocytes can be determined by measuring the bleeding time. The normal bleeding time in human beings is in the range of 1 to 3 minutes and needs intact thrombozytes in a sufficient number. If the number of thrombocytes is normal and the bleeding time is prolonged, this signifies a disturbed function of the thrombocytes. This is found in some congenital defects of thrombocyte function (V. Willebrand's disease, for example). If, on the other hand it is the aim to prevent spontaneous aggregation of the thrombocytes and occlusion in the arterial system by antithrombotic drugs, the bleeding time should be prolonged as a consequence. Therefore, using antithrombotic substances, a prolongation of the bleeding time is expected. If the plasma coagulation system is not influenced by such a medicine, coagulation tests will give a normal result.
To measure the bleeding time, 10 mg/kg of the test compound is administered orally to conscious mice. After 1 hour, 0.5 mm of the tip of the mousetail is cut off and droplets of blood are gently removed with filter paper every 30 second. The number of drops of blood give a measure for the bleeding time (5 animals/experiment).
The numbers in the following table represent the prolongation in % compared to the control group.

[8] = system: phosphodiesterase (PDE), supernatant of human blood platelets; experiment: PDE inhibition (3H-cAMP hydrolysis); assay type: biochemical; conditions: human blood platelet PDE, 1 μmol/liter 3H-cAMP, pH 7.4, 15 minutes, 37° C.
Protocol: cAMP is hydrolysed to AMP by phosphodiesterase (PDE) from various sources, including blood platelets. This hydrolysis is inhibited by PDE inhibitors according to the concentration.
The phosphodiesterase used was the 10,000×g supernatant of human blood platelets which had been frozen with water and thawed out again.
An amount of 0.3 ml of a mixture which contained 0.1 mole/liter of trihydroxy-aminomethane (pH 7.4), 3 mmole/liter of magnesium chloride, 1 mmole/liter of AMP, 1 μmol/liter of ^3 H-cAMP (specific activity about 10 MBq/μmol), PDE as well as the substance to be tested and water for the control were incubated for 15 minutes at 37° C.
The incubation was stopped by the addition of 0.5 ml of zinc sulfate (0.266 mole/liter) and 0.5 ml of barium hydroxide (0.266 mole/liter), the precipitate was centrifuged and the activity remaining in the supernatant of the unreacted ^3 H-cAMP was determined. From a comparison of the substance preparations and the control preparations, the concentration for a 50% inhibiting activity (IC50) of the respective substance was calculated.

[9] = system: auricles (rat heart); experiment: Positive inotropic activity on isolated rat auricles; set-up: species or system rats; conditions: 1×10^-5 gm/ml, 30° C., from the starting values, read-out: % Increase in Force of Contraction
Protocol: Rats were anesthetized with ether and subsequently killed by a blow on the neck. After opening the thorax, the heart was removed and both auricles were separated. The auricles were put into an organ bath of 100 ml containing a tyrode solution at a temperature of 30° C. The tyrode solution was infused with carbogen (95% of O2 and 5% of CO2). The spontaneous contractions of the auricles were registered isometrically. The auricles were weighted with 1 gm. The compounds in question were tested on 4 auricles each at 1×10^-5 gm/ml. The alteration of the contraction force was registered in % from the starting values.

[10] = ADP-induced (about 1×10^-6 mol/l), read-out: EC50 (50% inhibition of thrombocyte aggregation), ADP
[11] = collagen-induced, read-out: EC50 (50% inhibition of thrombocyte aggregation), Collagen

O=C1CCc2cc(OCCCC[S+]([O-])c3ccc(Cl)c(Cl)c3)ccc2N1 (stereo not shown) [U, 6-[4-(3,4-Dichlorophenyl-sulfinyl)-butoxy]-3,4-dihydro-carbostyril]
LD50 at 336 h [1]: > 1000 mg/kg
animals died (acute toxicity per os) [2]: 0 out of 10 animals
Percentage of Deceased Animals ([3]; 2 mg/kg p.o.): 40%
Percentage of Deceased Animals ([3]; 6 mg/kg p.o.): 13%
% Reduction of the Number of Thrombocytes ([4]; dose 2 mg/kg): 34%
% Reduction of the Number of Thrombocytes ([4]; dose 6 mg/kg): 20.8%
% Reduction of the Number of Thrombocytes ([4]; dose 18 mg/kg): 1.1%
EC50 [5, 10]: 15 µM
EC50 [5, 11]: 4 µM
Percentage Reduction of the Average Thrombosis Size [6]: 32%
change in vivo at 10 mg/kg [7]: 33%
IC50 [8]: 0.27 µM

O=C1CCc2cc(OCCCCS(=O)(=O)c3ccccc3)ccc2N1 [Compound C, 6-(4-Phenylsulfonyl-butoxy)-3,4-dihydro-carbostyril]
activation at 10 µg/mL [9]: 35%
LD50 at 336 h [1]: > 1000 mg/kg
animals died (acute toxicity per os) [2]: 0 out of 10 animals
EC50 [5, 10]: 15 µM
EC50 [5, 11]: 5 µM
change in vivo at 10 mg/kg [7]: 26%
IC50 [8]: 1.5 µM

O=c1ccc2cc(OCCCCS(=O)(=O)c3ccccn3)ccc2[nH]1 [T, 6-[4-(2-Pyridyl-sulfonyl)-butoxy]-carbostyril]
activation at 10 µg/mL [9]: 32%
LD50 at 336 h [1]: > 1000 mg/kg
animals died (acute toxicity per os) [2]: 0 out of 10 animals
Percentage of Deceased Animals ([3]; 2 mg/kg p.o.): 23%
Percentage of Deceased Animals ([3]; 6 mg/kg p.o.): 6.7%
% Reduction of the Number of Thrombocytes ([4]; dose 2 mg/kg): 29%
% Reduction of the Number of Thrombocytes ([4]; dose 4 mg/kg): 15%
% Reduction of the Number of Thrombocytes ([4]; dose 8 mg/kg): 1.1%
EC50 [5, 10]: 6 µM
EC50 [5, 11]: 0.1 µM
Percentage Reduction of the Average Thrombosis Size [6]: 29%
change in vivo at 10 mg/kg [7]: 5%
IC50 [8]: 1 µM

O=C1CCc2cc(OCCCC[S+]([O-])c3ccc(Cl)cc3)ccc2N1 (stereo not shown) [I, 6-[4-(4-Chlorophenyl-sulfinyl)-butoxy]-3,4-dihydro-carbostyril]
activation at 10 µg/mL [9]: 52%
LD50 at 336 h [1]: > 1000 mg/kg
animals died (acute toxicity per os) [2]: 0 out of 10 animals
EC50 [5, 10]: 10 µM
EC50 [5, 11]: 4 µM
Percentage Reduction of the Average Thrombosis Size [6]: 4%
change in vivo at 10 mg/kg [7]: > 300%
IC50 [8]: 0.8 µM

O=C1CCc2cc(OCCCC[S+]([O-])c3ccccn3)ccc2N1 (stereo not shown) [E, 6-[4-(2-Pyridyl-sulfinyl)-butoxy]-3,4-dihydro-carbostyril]
activation at 10 µg/mL [9]: 16%
LD50 at 336 h [1]: > 1000 mg/kg
animals died (acute toxicity per os) [2]: 0 out of 10 animals
EC50 [5, 10]: 25 µM
EC50 [5, 11]: 6.5 µM
Percentage Reduction of the Average Thrombosis Size [6]: 16%
change in vivo at 10 mg/kg [7]: 152%
IC50 [8]: 3.9 µM

Cc1cc(=O)[nH]c2ccc(OCCCC[S+]([O-])c3ccccc3)cc12 (stereo not shown) [Q, 4-Methyl-6-(4-phenylsulfinyl-butoxy)-carbostyril]
activation at 10 µg/mL [9]: 58%
LD50 at 336 h [1]: > 1000 mg/kg
animals died (acute toxicity per os) [2]: 0 out of 10 animals
EC50 [5, 10]: 40 µM
EC50 [5, 11]: 3.6 µM
Percentage Reduction of the Average Thrombosis Size [6]: 22%
change in vivo at 10 mg/kg [7]: 39%
IC50 [8]: 0.64 µM

O=C1CCc2cc(OCCCC[S+]([O-])c3ccc4ccccc4c3)ccc2N1 (stereo not shown) [L, 6-[4-(2-Naphthyl-sulfinyl)-butoxy]-3,4-dihydro-carbostyril]
activation at 10 µg/mL [9]: 63%
LD50 at 336 h [1]: > 1000 mg/kg
animals died (acute toxicity per os) [2]: 0 out of 10 animals
EC50 [5, 10]: 10 µM
EC50 [5, 11]: 1 µM
change in vivo at 10 mg/kg [7]: 15%
IC50 [8]: 0.14 µM

O=C1CCc2cc(OCCCC[S+]([O-])c3cc(Cl)ccc3Cl)ccc2N1 (stereo not shown) [S, 6-[4-(2,5-Dichlorophenyl-sulfinyl)-butoxy]-3,4-dihydro-carbostyril]
activation at 10 µg/mL [9]: 83%
LD50 at 336 h [1]: > 1000 mg/kg
animals died (acute toxicity per os) [2]: 0 out of 10 animals
EC50 [5, 10]: 10 µM
EC50 [5, 11]: 1 µM
IC50 [8]: 2.1 µM

COc1ccccc1[S+]([O-])CCCCOc1ccc2c(c1)CCC(=O)N2 (stereo not shown) [M, 6-[4-(2-Methoxyphenyl-sulfinyl)-butoxy]-3,4-dihydro-carbostyril]
activation at 10 µg/mL [9]: 65%
LD50 at 336 h [1]: > 1000 mg/kg
animals died (acute toxicity per os) [2]: 0 out of 10 animals
EC50 [5, 10]: 22 µM
EC50 [5, 11]: 4 µM
change in vivo at 10 mg/kg [7]: 27%
IC50 [8]: 0.15 µM

O=C1CCc2cc(OCCCC[S+]([O-])c3ccccc3)ccc2N1 (stereo not shown) [B, 6-(4-Phenylsulfinyl-butoxy)-3,4-dihydro-carbostyril]
activation at 10 µg/mL [9]: 30%
LD50 at 336 h [1]: > 1000 mg/kg
animals died (acute toxicity per os) [2]: 0 out of 10 animals
EC50 [5, 10]: 20 µM
EC50 [5, 11]: 4 µM
Percentage Reduction of the Average Thrombosis Size [6]: 23%
change in vivo at 10 mg/kg [7]: 102%
IC50 [8]: 1.9 µM

O=C1CCc2cc(OCCCCS(=O)(=O)c3ccccn3)ccc2N1 [F, 6-[4-(2-Pyridyl-sulfonyl)-butoxy]-3,4-dihydro-carbostyril]
activation at 10 µg/mL [9]: 18%
LD50 at 336 h [1]: > 1000 mg/kg
animals died (acute toxicity per os) [2]: 0 out of 10 animals
EC50 [5, 10]: 20 µM
EC50 [5, 11]: 20 µM
change in vivo at 10 mg/kg [7]: 91%
IC50 [8]: 3.8 µM
